In general, IC50 refers to the concentration that inhibits the measured activity by half.

Assay [1] deals with recombinant human Mcl-1 (Mcl-1/Bim interaction) (Homo sapiens (Human), UniProt Q07820). In words: biochemical. In kind it is binding. Conditions: cell free Mcl-1:Bim TR-FRET.
Protocol: Cell free Mcl-1:Bim Affinity Assay (Mcl-1 HTRF)
The inhibition of the Mcl-1/Bim interaction was measured using a time-resolved fluorescence resonance energy transfer (TR-FRET) assay. The recombinant human Mcl-1 (C-terminally 6×His tagged Mcl-1 containing residues 171-327) was generated at Amgen Inc (Thousand Oaks, Calif.). A biotinylated peptide derived from human Bim (residues 51-76) was purchased from CPC Scientific (San Jose, Calif.). The TR-FRET assay was conducted in a 384-well white OptiPlate™ (PerkinElmer, Waltham, Mass.) in a total volume of 40 μL. The reaction mixture contained 0.1 nM Mcl-1(171-327), 0.05 nM biotin-Bim(51-76), 0.05 nM LANCE® Eu-W1024 Anti-6×His (PerkinElmer), 0.072 nM Streptavidin-Xlent (Cisbio, Bedford, Mass.), and serially diluted test compounds in the binding buffer of 20 mM Hepes, pH 7.5, 150 mM NaCl, 0.016 mM Brij® 35, and 1 mM dithiothreitol. Test compounds were pre-incubated with Mcl-1(171-327) and biotin-Bim (51-76) for 60 min before addition of the detection mixture (LANCE® Eu-W1024 Anti-6×His and Streptavidin-Xlent). The reaction plates were further incubated overnight and then were read on an Envision® multimode reader (PerkinElmer). Fluorescence signals were measured at 620 nm (40-nm bandwidth) and 665 nm (7.5-nm bandwidth) with a 60 μs delay after excitation at 320 nm (75-nm bandwidth). The signal ratio at 665/620 nm corresponded to the Mcl-1/Bim interaction and was used in all data analyses. The IC50 values of test compounds were determined from duplicate data by analyzing competition curves using a four-parameter sigmoidal model in GraphPad Prism (GraphPad Software, San Diego, Calif.) or in Genedata Screener® (Genedata, Basel, Switzerland).
For assay [2], the system named is OPM-2 human multiple myeloma cell line. The experiment in a line: Cell Viability Assay (OPM-2 10 FBS), CellTiter-Glo. Conditions: Homo sapiens, OPM-2, 16 h. It counts as cell-based. On the procedure: Cell Viability Assay (OPM-2 10 FBS)
The human multiple myeloma cell line, OPM-2, was cultured in complete growth medium containing RPMI 1640 and 10% fetal bovine serum (FBS). Cells were seeded into 384-well plates at 3000 cells/well density in complete growth medium containing 10% FBS, and incubated for 16 h with serially diluted test compounds in a 37° C. incubator with 5% CO2. Cell viability was tested using CellTiter-Glo® assay (Promega, Madison, Wis.) according to the manufacturer recommendations. Luminescence was determined using an EnVision® Multilabel plate reader 25 min after the addition of detection reagent. IC50 values were then calculated with Xlfit using a logistical 4-parameter fit model in GraphPad Prism (GraphPad Software, San Diego, Calif.) or in Genedata Screener® (Genedata, Basel, Switzerland).

Where [3] appears, read: read-out: OPM-2 10% FBS IC50 IP (μM), OPM-2 cells, 10% FBS, 16 h, CellTiter-Glo.

Like-named read-outs stand apart in the source and are kept apart here.

Chain of recombinant human Mcl-1 (Mcl-1/Bim interaction) (Q07820 171-327): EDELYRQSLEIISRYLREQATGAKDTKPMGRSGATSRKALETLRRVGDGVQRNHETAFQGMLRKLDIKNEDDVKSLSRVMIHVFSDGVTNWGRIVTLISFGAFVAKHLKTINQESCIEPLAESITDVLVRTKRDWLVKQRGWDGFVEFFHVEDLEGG

Turning to `CO[C@]1(C(=O)N(C)C)/C=C/C[C@H](C)[C@@H](C)S(=O)(=O)NC(=O)c2ccc3c(c2)N(C[C@@H]2CC[C@H]21)C[C@@]1(CCCc2cc(Cl)ccc21)CO3` [Example 177, (1S,3′R,6′R,7′R,8′E,11′S,12′R)-6-chloro-7′-methoxy-N,N,11′,12′-tetramethyl-15′-oxo-3,4-dihydro-2H-spiro[naphthalene-1,22′-[20]oxa[13]thia[1,14]diazatetracyclo[14.7.2.0˜3,6˜.0˜19,24˜]pentacosa[8,16,18,24]tetraene]-7′-carboxamide 13′,13′-dioxide], the IC50 was 0.153 nM in assay [1] (read-out: Mcl-1 HTRF IC50) and 0.615 µM in assay [2] (setting [3]).

Consider `CO[C@@]1(C(=O)N(C)C)/C=C/C[C@H](C)[C@@H](C)S(=O)(=O)NC(=O)c2ccc3c(c2)N(C[C@@H]2CC[C@H]21)C[C@@]1(CCCc2cc(Cl)ccc21)CO3` [Example 176, (1S,3′R,6′R,7′S,8′E,11′S,12′R)-6-chloro-7′-methoxy-N,N,11′,12′-tetramethyl-15′-oxo-3,4-dihydro-2H-spiro[naphthalene-1,22′-[20]oxa[13]thia[1,14]diazatetracyclo[14.7.2.0˜3,6˜.0˜19,24˜]pentacosa[8,16,18,24]tetraene]-7′-carboxamide 13′,13′-dioxide], for which the IC50 is 0.118 nM in assay [1] (read-out: Mcl-1 HTRF IC50) and 0.149 µM in assay [2] (setting [3]).

Regarding `CO[C@]1(CN2CCN3CCN(C(C)=O)C[C@@H]3C2)/C=C/C[C@H](C)[C@@H](C)S(=O)(=O)NC(=O)c2ccc3c(c2)N(C[C@@H]2CC[C@H]21)C[C@@]1(CCCc2cc(Cl)ccc21)CO3` (stereo in doubt) [Example 218], the IC50 in assay [1] (read-out: Mcl-1 HTRF IC50) came out at 0.142 nM; in assay [2] (setting [3]), 0.092 µM. As to `CO[C@@]1(C#CCCc2ccncn2)/C=C/C[C@H](C)[C@@H](C)S(=O)(=O)NC(=O)c2ccc3c(c2)N(C[C@@H]2CC[C@H]21)C[C@@]1(CCCc2cc(Cl)ccc21)CO3` [Example 100519, (1S,3′R,6′R,7′S,8′E,11′S,12′R)-6-chloro-7′-methoxy-11′,12′-dimethyl-7′-(4-(4-pyrimidinyl)-1-butyn-1-yl)-3,4-dihydro-2H,15′H-spiro[naphthalene-1,22′-[20]oxa[13]thia[1,14]diazatetracyclo [14.7.2.0~3,6~.0~19,24~]pentacosa[8,16,18,24]tetraen]-15′-one 13′,13′-dioxide], the IC50 in assay [1] (read-out: Mel-1 HTRF IC50) amounted to 0.175 nM; in assay [2] (read-out: OPM-2 10% FBS IC50 IP, OPM-2 cells, 10% FBS, 16 h, CellTiter-Glo), 0.138 µM. Consider `CO[C@]1(CN2CCN3CCCC[C@@H]3C2)/C=C/C[C@H](C)[C@@H](CCO)S(=O)(=O)NC(=O)c2ccc3c(c2)N(C[C@@H]2CC[C@H]21)C[C@@]1(CCCc2cc(Cl)ccc21)CO3` [Example 358, (1S,3′R,6′R,7′R,8′E,11′S,12′R)-6-chloro-12′-(2-hydroxyethyl)-7′-methoxy-11′-methyl-7′-((9aR)-octahydro-2H-pyrido[1,2-a]pyrazin-2-ylmethyl)-3,4-dihydro-2H,15′H-spiro[naphthalene-1,22′-[20]oxa[13]thia[1,14]diazatetracyclo[14.7.2.0˜3,6˜.0˜19,24˜]pentacosa[8,16,18,24]tetraen]-15′-one 13′,13′-dioxide], for which the figures for the concentration for half-maximal inhibition (IC50) in assay [1] (read-out: Mcl-1 HTRF IC50) and in assay [2] (setting [3]) were 0.066 nM and 0.144 µM, respectively. For `CCO[C@]1(CN2CCN(C(C)C)[C@H](C)C2)/C=C/C[C@H](C)[C@@H](C)S(=O)(=O)NC(=O)c2ccc3c(c2)N(C[C@@H]2CC[C@H]21)C[C@@]1(CCCc2cc(Cl)ccc21)CO3` [Example 9, (1S,3′R,6′R,7′R,8′E,11′S,12′R)-6-chloro-7′-ethoxy-11′,12′-dimethyl-7′-(((3R)-3-methyl-4-(1-methylethyl)-1-piperazinyl)methyl)-3,4-dihydro-2H,15′H-spiro[naphthalene-1,22′-[20]oxa[13]thia[1,14]diazatetracyclo[14.7.2.0˜3,6˜.0˜19,24˜]pentacosa[8,16,18,24]tetraen]-15′-one 13′,13′-dioxide], the IC50 in assay [1] (read-out: Mcl-1 HTRF IC50) was 0.078 nM; in assay [2] (setting [3]), 0.05 µM. On the same counts, the results for `C[C@@H]1[C@@H](C)C/C=C/[C@@](O)(CN2CCN3CCOC[C@@H]3C2)[C@@H]2CC[C@H]2CN2C[C@@]3(CCCc4cc(Cl)ccc43)COc3ccc(cc32)C(=O)NS1(=O)=O` [Example 193, (1S,3′R,6′R,7′S,8′E,11′S,12′R)-6-chloro-7′-((9aS)-hexahydropyrazino[2,1-c][1,4]oxazin-8(1H)-ylmethyl)-7′-hydroxy-11′,12′-dimethyl-3,4-dihydro-2H,15′H-spiro[naphthalene-1,22′-[20]oxa[13]thia[1,14]diazatetracyclo[14.7.2.0˜3,6˜.0˜19,24˜]pentacosa[8,16,18,24]tetraen]-15′-one 13′,13′-dioxide] are 0.096 nM and 0.023 µM. With `C[C@@H]1[C@@H](C)C/C=C/[C@](O)(CN2CCN3CCOC[C@@H]3C2)[C@@H]2CC[C@H]2CN2C[C@@]3(CCCc4cc(Cl)ccc43)COc3ccc(cc32)C(=O)NS1(=O)=O` [Example 213, (1S,3′R,6′R,7′R,8′E,11′S,12′R)-6-chloro-7′-((9aS)-hexahydropyrazino[2,1-c][1,4]oxazin-8(1H)-ylmethyl)-7′-hydroxy-11′,12′-dimethyl-3,4-dihydro-2H,15′H-spiro[naphthalene-1,22′-[20]oxa[13]thia[1,14]diazatetracyclo[14.7.2.0˜3,6˜.0˜19,24˜]pentacosa[8,16,18,24]tetraen]-15′-one 13′,13′-dioxide], the values for the IC50 in assay [1] (read-out: Mcl-1 HTRF IC50) and in assay [2] (setting [3]) were 0.239 nM and 0.4 µM, respectively. The like results for `CCO[C@]1(CN2CCN(C(C)C)[C@H](C)C2)/C=C/C[C@H](C)[C@@H](CCOC)S(=O)(=O)NC(=O)c2ccc3c(c2)N(C[C@@H]2CC[C@H]21)C[C@@]1(CCCc2cc(Cl)ccc21)CO3` [Example 17, (1S,3′R,6′R,7′R,8′E,11′S,12′R)-6-chloro-7′-ethoxy-12′-(2-methoxyethyl)-11′-methyl-7′-(((3R)-3-methyl-4-(1-methylethyl)-1-piperazinyl)methyl)-3,4-dihydro-2H,15′H-spiro[naphthalene-1,22′-[20]oxa[13]thia[1,14]diazatetracyclo[14.7.2.0˜3,6˜.0˜19,24˜]pentacosa[8,16,18,24]tetraen]-15′-one 13′,13′-dioxide] were, in that order, 0.073 nM and 0.034 µM. As to `CCO[C@]1(CN2CCN(C(C)C)CC2)/C=C/C[C@H](C)[C@@H](CCOC)S(=O)(=O)NC(=O)c2ccc3c(c2)N(C[C@@H]2CC[C@H]21)C[C@@]1(CCCc2cc(Cl)ccc21)CO3` [Example 16, (1S,3′R,6′R,7′R,8′E,11′S,12′R)-6-chloro-7′-ethoxy-12′-(2-methoxyethyl)-11′-methyl-7′-((4-(1-methylethyl)-1-piperazinyl)methyl)-3,4-dihydro-2H,15′H-spiro[naphthalene-1,22′-[20]oxa[13]thia[1,14]diazatetracyclo[14.7.2.0˜3,6˜.0˜19,24˜]pentacosa[8,16,18,24]tetraen]-15′-one 13′,13′-dioxide], in assay [1] (read-out: Mcl-1 HTRF IC50), the IC50 is 0.065 nM. Same read-out and setting: next, `CO[C@@]1(CN2CCN(CC(=O)O)CC2)/C=C/C[C@H](C)[C@@H](C)S(=O)(=O)NC(=O)c2ccc3c(c2)N(C[C@@H]2CC[C@H]21)C[C@@]1(CCCc2cc(Cl)ccc21)CO3` [Example 270, (4-(((1S,3′R,6′R,7′S,8′E,11′S,12′R)-6-chloro-7′-methoxy-11′,12′-dimethyl-13′,13′-dioxido-15′-oxo-3,4-dihydro-2H-spiro[naphthalene-1,22′-[20]oxa[13]thia[1,14]diazatetracyclo[14.7.2.0˜3,6˜.0˜19,24˜]pentacosa[8,16,18,24]tetraen]-7′-yl)methyl)-1-piperazinyl)acetic acid]: 0.035 nM; `CO[C@@]1(CN2CCN3CCN(C(C)=O)C[C@@H]3C2)/C=C/C[C@H](C)[C@@H](C)S(=O)(=O)NC(=O)c2ccc3c(c2)N(C[C@@H]2CC[C@H]21)C[C@@]1(CCCc2cc(Cl)ccc21)CO3` (single isomer, unassigned) [Example 226]: 0.057 nM. Turning to `CO[C@@]1(CN2CCN(C3COC3)CC2)/C=C/C[C@H](C)[C@@H](C)S(=O)(=O)NC(=O)c2ccc3c(n2)N(C[C@@H]2CC[C@H]21)C[C@@]1(CCCc2cc(Cl)ccc21)CO3` [Example 19, (1S,3′R,6′R,7′S,8′E,11′S,12′R)-6-chloro-7′-methoxy-11′,12′-dimethyl-7′-((4-(3-oxetanyl)-1-piperazinyl)methyl)-3,4-dihydro-2H,15′H-spiro[naphthalene-1,22′-[20]oxa[13]thia[1,14,25]triazatetracyclo[14.7.2.0˜3,6˜.0˜19,24˜]pentacosa[8,16,18,24]tetraen]-15′-one 13′,13′-dioxide], the IC50 in assay [1] (read-out: Mcl-1 HTRF IC50) turned out to be 0.125 nM. For the molecule `CC[C@@H]1CC/C=C/[C@@](CN2CCN3CCCC[C@@H]3C2)(OC)[C@@H]2CC[C@H]2CN2C[C@@]3(CCCc4cc(Cl)ccc43)COc3ccc(cc32)C(=O)N(C)S1(=O)=O` [Example 33, (1S,3′R,6′R,7′R,8′E,12′R)-6-chloro-12′-ethyl-7′-methoxy-14′-methyl-7′-((9aR)-octahydro-2H-pyrido[1,2-a]pyrazin-2-ylmethyl)-3,4-dihydro-2H,15′H-spiro[naphthalene-1,22′-[20]oxa[13]thia[1,14]diazatetracyclo[14.7.2.0˜3,6˜.0˜19,24˜]pentacosa[8,16,18,24]tetraen]-15′-one 13′,13′-dioxide], in assay [1] (read-out: Mcl-1 HTRF IC50), the concentration for half-maximal inhibition (IC50) came to 8.25 nM. On the same count and under the same terms, under `CO[C@]1(CN2CCN3CCN(C(C)=O)C[C@@H]3C2)/C=C/C[C@H](C)[C@@H](C)S(=O)(=O)NC(=O)c2ccc3c(c2)N(C[C@@H]2CC[C@H]21)C[C@@]1(CCCc2cc(Cl)ccc21)CO3` (single isomer, unassigned) [Example 230] stands 0.051 nM.

Values taken from patent publication US11224601B1, “Compounds that inhibits MCL-1 protein” (priority 2017, dated 2022).
